Results on 6 molecules are retold here after US5444042A, “Method of treatment of neurodegeneration with calpain inhibitors” (Cortex Pharmaceuticals, priority 1994, dated 1995).

In data set [1] the target is T1, Calpain I (Homo sapiens, UniProt P07384).
T1 sequence (P07384 1-714): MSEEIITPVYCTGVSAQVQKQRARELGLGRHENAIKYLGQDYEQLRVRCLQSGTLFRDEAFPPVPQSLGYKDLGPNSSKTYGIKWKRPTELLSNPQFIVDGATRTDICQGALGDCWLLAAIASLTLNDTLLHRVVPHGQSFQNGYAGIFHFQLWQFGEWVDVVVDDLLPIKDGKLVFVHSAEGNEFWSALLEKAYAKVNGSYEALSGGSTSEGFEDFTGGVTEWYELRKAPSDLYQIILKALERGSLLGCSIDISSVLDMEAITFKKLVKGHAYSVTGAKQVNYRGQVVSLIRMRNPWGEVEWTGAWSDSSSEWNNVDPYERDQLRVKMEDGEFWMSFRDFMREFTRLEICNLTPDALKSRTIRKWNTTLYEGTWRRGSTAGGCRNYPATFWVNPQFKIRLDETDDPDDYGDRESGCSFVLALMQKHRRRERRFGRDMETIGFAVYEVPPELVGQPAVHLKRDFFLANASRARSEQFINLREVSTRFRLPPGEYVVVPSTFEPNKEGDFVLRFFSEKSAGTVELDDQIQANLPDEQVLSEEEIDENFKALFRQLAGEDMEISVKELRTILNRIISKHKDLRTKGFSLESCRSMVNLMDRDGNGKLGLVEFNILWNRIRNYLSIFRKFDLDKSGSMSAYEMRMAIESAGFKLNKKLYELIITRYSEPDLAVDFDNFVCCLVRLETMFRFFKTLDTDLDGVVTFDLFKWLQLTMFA
T1 sequence (P04632 1-268 partner): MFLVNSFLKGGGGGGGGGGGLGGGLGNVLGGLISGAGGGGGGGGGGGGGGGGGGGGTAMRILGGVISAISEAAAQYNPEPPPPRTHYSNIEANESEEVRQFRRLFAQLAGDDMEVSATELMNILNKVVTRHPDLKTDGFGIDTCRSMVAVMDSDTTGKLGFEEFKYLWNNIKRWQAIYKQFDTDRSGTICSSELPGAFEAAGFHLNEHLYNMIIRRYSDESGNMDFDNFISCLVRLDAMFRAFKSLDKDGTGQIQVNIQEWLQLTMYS
Description: Calpain I KI (Table 1B(ii)). Type of data set: biochemical. As to conditions: Table 1B(ii). An excerpt:
(§1) We tested the ability of an additional group of Peptide Keto-Compounds to inhibit several proteases in order to evaluate their specificity for Calpain.

Data set [2] concerns the target Calpain II. Description: Calpain II KI (Table 1B(ii)). Type of data set: biochemical.
Source text: as §1

The target of data set [3] is T2, Cathepsin B (Bos taurus, UniProt P07688). Description: Cathepsin B KI (Table 1B(ii)). Type of data set: biochemical. As to conditions: read-out: KI CathB.
Source text: as §1

Data set [4] deals with Chym (Bos taurus, UniProt P00766). Description: Chym KI (Table 1B(ii)). It counts as biochemical.
Source text: as §1

Data set [5] addresses PP Elastase (Sus scrofa, UniProt P00772). Description: PP Elastase KI (Table 1B(ii)). It counts as biochemical.
Source text: as §1

Data set [6] deals with T3, Papain (Carica papaya, UniProt P00784).
T3 sequence (P00784 134-345): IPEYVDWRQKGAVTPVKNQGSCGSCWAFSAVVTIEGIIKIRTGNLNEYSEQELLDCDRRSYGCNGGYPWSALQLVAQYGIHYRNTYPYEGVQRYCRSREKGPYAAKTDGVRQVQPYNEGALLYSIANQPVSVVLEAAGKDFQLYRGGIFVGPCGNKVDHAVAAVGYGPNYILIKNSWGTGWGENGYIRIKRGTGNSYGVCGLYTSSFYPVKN
Description: Papain KI (Table 1B(ii)). Type of data set: biochemical.
Source text: as §1

A short description of data set [7]: Stability in plasma. Type of data set: in vitro ADME. The note with it: unit assumed. An excerpt: We determined the haft-life of several Peptide Keto-Compounds in both plasma and liver homogenates.
For data set [8], the system named is Calpain within platelets. The experiment in a line: Platelet membrane permeation assay, spectrin proteolysis (Examples 4A, 4B). It counts as cell-based, rat. The note with it: for inhibition of Calpain within platelets / platelet assay, semi-quantitative: 100 μM; for inhibition of Calpain within platelets: A23187 1 μM; for effect on intracellular (platelet) Calpain: concentration not given. The protocol: Platelets were isolated by a modification of the method of Ferrell and Martin, J Biol. Chem., 264:20723-20729 (1989), the disclosure of which is hereby incorporated by reference. Blood (15-20 ml) was drawn from male Sprague-Dawley rats into 100 mM EDTA-citrate containing 10 units heparin, and centrifuged 30 minutes at 1600 rpm at room temperature. The plasma was resuspended in 15 ml buffer 1 (136 mM NaCl, 2.7 mM KCl, 0.42 mM NaH2 PO4, 12 mM NaHCO3, 2 mM MgCl2, 2 mg/ml BSA (Sigma), 5.6 mM glucose, 22 mM Na3 Citrate pH 6.5) and platelets were isolated at 2200 rpm at room temperature of 25 minutes. Platelets were resuspended to 10^7 cells/ml in buffer 2 (136 mM NaCl, 2.7 mM KCl, 0.42 NaH2 PO4, 12 mM NaHCO3, 2 mM MgCl, 1 mg/ml BSA, 5.6 mM glucose, 20 mM HEPES pH 7.4) and allowed to "rest" for a minimum of 10 minutes at room temperature before use.
Platelets were incubated for 5 minutes in the presence of inhibitor. In order to provide sufficient intracellular calcium to activate Calpain, the calcium ionophore A23187 was added to a final concentration of 1 μM. After a further 5 minute incubation, the platelets were harvested by centrifugation (1 min 10,000×g) and resuspended in 10% sodium dodecyl sulfate, 10 mM Tris pH=8.0, 5% β-mercaptoethanol, 0.02% bromophenol blue, and heated to 95° C. for 5 min. Samples were subjected to SDS-PAGE on 6% mini gels and transferred to nitrocellulose (Schleicher and Schuell BAS3) for 2 hours at 100 mA/gel in an LKB Novablot. Filters were blocked for 10 minutes in 0.25% gelatin, 1% BSA, 0.25% Triton X100, 0.9% NaCl, 10 mM Tris-Cl pH 7.5, incubated overnight in the same solution containing antibody to rat spectrin, washed 3×10 minutes with 10 mM Tris-Cl pH 7.5, 0.5 % Triton X100, incubated 4 hours in wash buffer plus alkaline phosphatase conjugated goat anti-rabbit antibody (Biorad), and washed as above. Filters were developed using the Biorad AP conjugate substrate kit. Spectrin immunoreactivity on the filters was quantitated by densitometry.

Data set [9] addresses T3, Papain. The experiment in a line: Papain inhibition, Ki by Dixon plot (Table PKC1). Type of data set: biochemical. The note with it: 5 mM cysteine, 25° C. The protocol:
(§2) Various concentrations of inhibitors in dimethylsulfoxide (DMSO) were added to the assay mixture, which contained buffer and substrate. The reaction was started by the addition of the enzyme and the hydrolysis rates were followed spectrophotometrically or fluorimetrically. 88 mM KH2 PO4, 12 mM Na2 HPO4, 1.33 mM EDTA, 2.7 mM cysteine, pH 6.0 was used as a buffer for cathepsin B; and 20 mM Hepes, 10 mM CaCl2, 10 mM β-mercaptoethanol, pH 7.2 buffer was utilized for calpain I and calpain II.
(§3) All peptide thioester hydrolysis rates were measured with assay mixtures containing 4,4'-dithiodipyridine [e324=19800 M-1 cm-1; Grasetti & Murray, Arch. Biochem. Biophys. 119, pp 41-49 (1967)]. Papain was assayed with Bz-Arg-AMC or Bz-Arg-NA [Kanaoka et al., Chem. Pharm. Bull. 25, 3126-3128 (1977)], and the AMC (7-amino-4-methylcoumarin) release was followed fluorimetrically (excitation at 380 nm, and emission at 460 nm). Cathepsin B was assayed with Z-Arg-Arg-AFC [Barrett and Kirschke, Methods Enzymol. 80, 535-561 (1981)], and the AFC (7-amino-4-trifluoromethylcoumarin) release was followed fluorimetrically (excitation at 400 nm, and emission at 505 nm). Calpain I from human erythrocytes and calpain II from rabbit were assayed using Suc-Leu-Tyr-AMC [Sasaki et al., J. Biol. Chem. 259, 12489-12494 (1984), hereby incorporated by reference], and the AMC (7-amino-4-methylcoumarin) release was followed fluorimetrically (excitation at 380 nm, and emission at 460 nm). Enzymatic hydrolysis rates were measured at various substrate and inhibitor concentrations, and Ki values were determined by Dixon plot.
The inhibition constants for papain shown in Table PKC1 were measured in 0.05M Tris-HCl, pH 7.5 buffer, containing 2 mM EDTA, 5 mM cysteine (freshly prepared), 1% DMSO, at 25° C., using N^α -Benzoyl-Arg-AMC as a substrate, except that those values of inhibition constants for papain marked with an "e" in Table PKC1 were measured in 50 mM Tris-HCl, pH 7.5 buffer, containing 20 mM EDTA, 5 mM cysteine, 9% DMSO, at 25° C., using N^α -Benzoyl-Arg-NA as a substrate.

For data set [10], the target named is T2, Cathepsin B. Description: Cathepsin B inhibition, Z-Arg-Arg-AFC (Table PKC1). It counts as biochemical. The note with it: pH 6.0 phosphate buffer, substrate Z-Arg-Arg-AFC; read-out: Ki CB (Cathepsin B). The protocol: as §2, §3
The test system of data set [11] is Calpain in crude brain extracts. The experiment in a line: Ca2+-stimulated spectrin proteolysis in crude brain extracts (Example 2). Type of data set: biochemical. As to conditions: 100 μM. The protocol:
The activity of Calpain in crude brain extracts was measured by examining the Ca^2+ -stimulated proteolysis of the endogenous substrate spectrin. Brain tissue was homogenized in 10 mM Tris pH=7.4, 0.32M sucrose, 1 mM EGTA, 1 mM dithiothreitol and the nuclei and debris removed by low speed centrifugation. […] Proteolysis of spectrin was evaluated by western blot as described by Seubert, et at. (Brain Research, 459:226-232, 1988), the disclosure of which is hereby incorporated by reference. Briefly, a known quantity of a spectrin-containing sample treated with Calpain is separated by SDS-PAGE and immunoblotted with anti-spectrin antibody. The amount of spectrin immunoreactivity found corresponding to the characteristic BDP's is indicative of the amount of […] activity present in the sample. An examplary method for quantitating BDP's is to assay Spectrin BDP's by homogenizing brain parts in 20 mM Tris pH=7.2, 0.32M sucrose, 50 μM Ac-Leu-Leu-nLeu-H on ice. Homogenates are then mixed 1:1 with 10% SDS, 5% β-mercaptoethanol, 10% glycerol, 10 mM Tris pH=8.0, 0.5% bromophenolblue, heated to 95° C., and subjected to electrophoresis in 41/2% polyacrylamide gels. The proteins in the gels are transferred to nitrocellulose and the spectrin and BDP's detected using a rabbit polyclonal anti-spectrin antibody and established immunodetection methods. The amount of spectrin and BDP's in each sample can be quantitated by densitrometric scanning of the developed nitrocellulose.

Setting [12] is: 50 mM Tris-HCl pH 7.5, 20 mM EDTA, 9% DMSO, substrate Nα-Benzoyl-Arg-NA, read-out: Ki P (Papain), values marked e.

Each structure is given as a SMILES string.

PP Elastase, sequence (P00772 27-266): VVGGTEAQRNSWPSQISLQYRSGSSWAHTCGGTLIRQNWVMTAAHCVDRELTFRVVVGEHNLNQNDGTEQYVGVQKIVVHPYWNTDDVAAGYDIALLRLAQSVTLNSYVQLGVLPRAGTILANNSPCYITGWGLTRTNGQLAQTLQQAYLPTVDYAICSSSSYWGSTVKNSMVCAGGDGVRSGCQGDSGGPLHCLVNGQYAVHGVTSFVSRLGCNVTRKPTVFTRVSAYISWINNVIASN

With `CC(C)C[C@H](NC(=O)OCc1ccccc1)C(=O)N[C@@H](Cc1ccccc1)C(=O)C(=O)OCc1ccccc1` [Z-Leu-Phe-COOBz, Z-Leu-Phe-CO2 Bzl], the Ki in data set [1] is 3.4 µM; in [2], 1.6 µM; in [3], 45 µM; in data set [4], 1.6 µM; in [5] it was above 100 µM; in data set [6], 45 µM. Besides, the t1/2 plasma in [7] turned out to be 1.9 min. Further, the “inhibition of Calpain within platelets” value in data set [8] was “significant inhibition”. For the same molecule, in data set [8], the “platelet assay, semi-quantitative” value is reported as “++”.

As for `CCOC(=O)C(=O)C(Cc1ccc(Cl)cc1)NC(=O)C(CC(C)C)NC(=O)OCc1ccccc1` (stereo not shown) [Z-Leu-4-Cl-Phe-COOEt], the Ki in data set [1] is below 4 µM; in [2], 0.4 µM; in data set [3], 50 µM; in [4] it was 0.9 µM; in [5], above 100 µM; in data set [6] it was 150 µM. Moreover, the “inhibition of Calpain within platelets” value in data set [8] was “significant inhibition”. For the same molecule, the “platelet assay, semi-quantitative” value in data set [8] is on record as “+”.

For the molecule `CCCCOC(=O)C(=O)C(CC)NC(=O)C(CC(C)C)NC(=O)OCc1ccccc1` (stereo not drawn) [Z-Leu-Abu-COOnBu, Z-Leu-Abu-CO2 Bu], the Ki in data set [3] is 4 µM; in [4], above 100 µM; in [5], 25 µM; in data set [6] it was 10 µM. In addition, the “inhibition of Calpain within platelets” value in data set [8] was “significant inhibition”. In [8] (concentration at which 50% of the Calpain activation present in controls occurred), the IC50 turned out to be 28 µM.

On to `CCOC(=O)C(=O)C(Cc1ccccc1)NC(=O)c1ccccc1` (racemic) [Bz-DL-Phe-COOEt, Bz-DL-Phe-CO2 Et], for which the values for the Ki in [9] (setting [12]) and in [10] were 500 µM and 64 µM, respectively. Also, the “inhibition of spectrin proteolysis in crude brain extracts” value in data set [11] is given as “significant inhibition”. Further, in [8], the “effect on intracellular (platelet) Calpain” value is listed as “failed to exhibit Calpain inhibitory activity”.

For the molecule `COC(=O)CCC(=O)NC(C(=O)N1CCCC1C(=O)NC(Cc1ccccc1)C(=O)C(=O)OC)C(C)C` (racemic) [MeO-Suc-Val-Pro-DL-Phe-COOMe, MeO-Suc-Val-Pro-DL-Phe-CO2 Me], the inhibition constant Ki in data set [9] (0.05M Tris-HCl pH 7.5, 2 mM EDTA, 1% DMSO, substrate Nα-Benzoyl-Arg-AMC, read-out: Ki P (Papain)) came out at 1.1 µM; in [9] (setting [12]) it was 2.9 µM; in [10] it was 0.1 µM. Moreover, in data set [11], the “inhibition of spectrin proteolysis in crude brain extracts” value was “significant inhibition”. The “effect on intracellular (platelet) Calpain” value in data set [8] is listed as “failed to exhibit Calpain inhibitory activity”.

For `CCOC(=O)C(=O)[C@H](Cc1ccccc1)NC(=O)[C@H](CC(C)C)NC(=O)[C@H](CC(C)C)NC(=O)OCc1ccccc1` [Z-Leu-Leu-Phe-COOEt], the Ki in data set [1] is 1.4 µM; in data set [2] it was 1.9 µM; in [3], 42 µM; in [4] it was 0.26 µM; in [5], above 100 µM; in data set [6] it was 15 µM. Further, the “inhibition of Calpain within platelets” value in data set [8] is “significant inhibition”. Further, the “platelet assay, semi-quantitative” value in data set [8] is reported as “++”.

In general, Ki refers to the dissociation constant of the complex between target and ligand, obtained from inhibition or displacement. The term IC50 denotes the midpoint of a concentration-inhibition curve. Low values mean greater potency, high ones weaker potency.
